Measurements reported in article PMC4646422 (ACS chemical biology, 2015).
Values joined by “and” are separate entries in the source; they are usually repeats but may differ in a detail not shown here. Identical values can stand only once. Like-named read-outs stand apart in the source and are kept apart here.

Columns and labels:
[1] = target: malate dehydrogenase (MDH); experiment: Malate dehydrogenase; type: biochemical; conditions: for inhibition of MDH (in words): counter-screening enzyme
[2] = type: physicochemical; conditions: for radius: DLS, 25 °C, at twice the compound's CAC; for radius / CAC (critical aggregation concentration): ND = not detected to precipitation limit; for CAC (critical aggregation concentration): dynamic light scattering, 50 mM KPi pH 7.0, 1% DMSO; for particle formation observed by DLS: up to solubility limits; for concentration at which the molecule may aggregate: authors' summary in the discussion
[3] = system: P-glycoprotein; conditions: read-out: EC50, P-glycoprotein; representative literature value; cited from earlier work
[4] = system: CYP3A4; conditions: read-out: EC50, CYP3A4; representative literature value; cited from earlier work
[5] = target: AmpC β-lactamase (Escherichia coli, UniProt P00811); experiment: biochemical; type: biochemical; conditions: for inhibition of AmpC β-lactamase (in words): counter-screening enzyme; for IC50: IC50 vs AmpC β-lactamase
Sequence of AmpC β-lactamase (P00811 20-377): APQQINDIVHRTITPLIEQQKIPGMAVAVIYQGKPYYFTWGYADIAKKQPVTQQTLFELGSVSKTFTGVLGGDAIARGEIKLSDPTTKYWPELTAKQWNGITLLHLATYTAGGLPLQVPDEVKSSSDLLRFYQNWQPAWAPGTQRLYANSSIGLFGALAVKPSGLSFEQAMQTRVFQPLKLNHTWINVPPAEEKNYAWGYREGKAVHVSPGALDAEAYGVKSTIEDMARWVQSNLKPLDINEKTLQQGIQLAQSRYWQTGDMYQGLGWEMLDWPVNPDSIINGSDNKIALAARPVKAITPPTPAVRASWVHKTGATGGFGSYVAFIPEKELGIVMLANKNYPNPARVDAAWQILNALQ

[6] = system: CDK2; conditions: read-out: EC50, CDK2; representative literature value; cited from earlier work
[7] = target: T1, HIV-2 protease (Human immunodeficiency virus type 2 subtype A, UniProt P04584); conditions: read-out: EC50, HIV-2 protease; representative literature value; cited from earlier work
T1 sequence (P04584 514-612 limits assumed): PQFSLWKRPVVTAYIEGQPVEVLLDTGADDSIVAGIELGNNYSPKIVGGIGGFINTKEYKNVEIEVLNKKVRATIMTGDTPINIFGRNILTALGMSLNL

[8] = target: Ca^2+-ATPase; conditions: read-out: EC50, Ca^2+-ATPase; representative literature value; cited from earlier work
[9] = system: HIV-1 protease; conditions: read-out: EC50, HIV-1 protease; representative literature value; cited from earlier work
[10] = target: T1, HIV-2 protease; experiment: HIV-2 protease inhibition assay; conditions: IC50 vs HIV-2 protease, 50 mM sodium acetate, pH 5.5, 200 mM sodium chloride
[11] = system: GL01; conditions: read-out: EC50, GL01; representative literature value; cited from earlier work
[12] = target: Trypsin from porcine pancreas (Sus scrofa, UniProt P00761); experiment: Trypsin inhibition assay; type: biochemical; conditions: IC50 vs trypsin, 50 mM potassium phosphate
Sequence of Trypsin from porcine pancreas (P00761 9-231): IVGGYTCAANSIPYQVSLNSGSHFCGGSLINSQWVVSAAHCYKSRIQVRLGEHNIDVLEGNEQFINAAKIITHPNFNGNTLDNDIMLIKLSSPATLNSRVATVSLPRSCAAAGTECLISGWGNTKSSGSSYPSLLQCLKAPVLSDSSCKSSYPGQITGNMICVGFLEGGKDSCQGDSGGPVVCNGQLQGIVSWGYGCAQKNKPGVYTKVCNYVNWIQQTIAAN

[13] = system: trypsin; conditions: read-out: EC50, trypsin; representative literature value; cited from earlier work
[14] = system: MMP; conditions: read-out: EC50, MMP; representative literature value; cited from earlier work
[15] = system: AMPK; conditions: read-out: EC50, AMPK; representative literature value; cited from earlier work
[16] = system: 11 β HSD1; conditions: read-out: EC50, 11 β HSD1; representative literature value; cited from earlier work
[17] = system: DYRK1A and CLK1; conditions: read-out: EC50, DYRK1A and CLK1; representative literature value; cited from earlier work
[18] = system: ERR; conditions: read-out: EC50, ERR; representative literature value; cited from earlier work
[19] = system: CDK; conditions: read-out: EC50, CDK; representative literature value; cited from earlier work
[20] = system: OCT2; conditions: read-out: EC50, OCT2; representative literature value; cited from earlier work
[21] = system: MATE1; conditions: read-out: EC50, MATE1; representative literature value; cited from earlier work
[22] = system: hCNT; conditions: read-out: EC50, hCNT; representative literature value; cited from earlier work
[23] = system: PTP1B; conditions: read-out: EC50, PTP1B; representative literature value; cited from earlier work
[24] = system: ASICs; conditions: read-out: EC50, ASICs; representative literature value; cited from earlier work
[25] = system: Hsp90; conditions: read-out: EC50, Hsp90; representative literature value; cited from earlier work
[26] = system: GLUT4; conditions: read-out: EC50, GLUT4; representative literature value; cited from earlier work
[27] = read-out: IC50 vs MDH, no detergent, 50 mM potassium phosphate, pH 7.0, ND = not detected to precipitation limit
[28] = read-out: IC50 vs MDH, with detergent, 50 mM potassium phosphate, pH 7.0 + 0.01% (v/v) Triton X-100, ND = not detected to precipitation limit
[29] = read-out: IC50 vs MDH, with DTT, with 1 mM DTT
[30] = with detergent, pH 7.0 + 0.01% (v/v) Triton X-100

Oc1ccc2c(c1)OC[C@]1(O)Cc3cc(O)c(O)cc3[C@H]21 [brazilin]
IC50 [1, 27]: 1.6 µM | IC50 [1, 28]: 84 µM | radius [2]: 52 ± 10 nm | CAC (critical aggregation concentration) [2]: 57 ± 7 µM

C[C@]12CC[C@H](O)C[C@H]1CC[C@@H]1[C@@H]2CC[C@]2(C)[C@@H](c3ccc(=O)oc3)CC[C@]12O [bufalin]
IC50 [1, 27]: 101 µM | IC50 [1, 28]: > 200 µM | radius [2]: 1317 ± 394 nm | CAC (critical aggregation concentration) [2]: 51 ± 3 µM | EC50 [3]: 100 µM | EC50 [4]: 14.5 µM

COc1ccc2c(c1OC)CN1CCc3cc4c(cc3[C@@H]1C2)OCO4 [canadine]
inhibition of AmpC β-lactamase (in words) [5]: did not inhibit | inhibition of MDH (in words) [1]: did not inhibit | radius [2]: 52 ± 14 nm | CAC (critical aggregation concentration) [2]: 95 ± 11 µM | particle formation observed by DLS [2]: formed particles | EC50 [6]: > 50 µM

COc1cc(/C=C/C(=O)CC(=O)/C=C/c2ccc(O)c(OC)c2)ccc1O [curcumin]
IC50 ([1]; read-out: IC50 vs MDH, no DTT): 9 µM | IC50 [1, 27]: 9 µM | IC50 [1, 29]: 10 µM | IC50 [1, 28]: > 30 µM | radius [2]: 465 ± 30 nm | CAC (critical aggregation concentration) [2]: 17 µM and 17 ± 0.44 µM | EC50 [7]: 250 µM | EC50 [8]: ~3 µM | EC50 [9]: 100 µM | IC50 ([10]; no detergent, 1 mM EDTA and 0.5 mM TCEP): 19 µM | IC50 ([10]; with detergent, 1 mM EDTA and 0.5 mM TCEP + 0.01% (v/v) Triton X-100): > 100 µM

Oc1cc(O)c2cc(O)c(-c3cc(O)c(O)c(O)c3)[o+]c2c1 [delphinidin]
IC50 [1, 27]: 27 µM | IC50 [1, 28]: > 100 µM | particle formation observed by DLS [2]: no particles were observed | EC50 [11]: 1.9 µM

COc1cc2c(O)c3c(c(-c4ccc5c(c4)OCO5)c2cc1OC)C(=O)OC3 [diphyllin]
IC50 [1, 27]: 49 µM | IC50 [1, 28]: > 200 µM | radius [2]: 269 ± 49 nm | CAC (critical aggregation concentration) [2]: 40 ± 4.0 µM

Cc1cc(O)c2c(c1)C(=O)c1cc(O)cc(O)c1C2=O [emodin]
IC50 ([5]; no DTT): 27 µM | IC50 ([5]; with DTT, with 1 mM DTT): 17 µM | IC50 ([1]; read-out: IC50 vs MDH, no DTT): 28 µM | IC50 [1, 27]: 28 µM | IC50 [1, 29]: 18 µM | IC50 [1, 28]: > 100 µM | IC50 ([12]; no detergent, pH 7.0): 49 µM | IC50 [12, 30]: > 500 µM | radius [2]: 231 ± 61 nm | CAC (critical aggregation concentration) [2]: 28 ± 2 µM | EC50 [13]: 50 µM | EC50 [14]: 12.8 to 20.1 µM | EC50 [15]: 0.5 µM | EC50 [16]: 4.2 to 7.2 µM | EC50 [17]: 4.2 to 6.1 µM

Oc1ccc([C@H]2COc3cc(O)ccc3C2)cc1 [equol]
concentration at which the molecule may aggregate [2]: ≥ 100 µM | particle formation observed by DLS [2]: no particles were observed | EC50 [18]: 5.8 µM

O=c1c(O)c(-c2ccc(O)cc2)oc2cc(O)cc(O)c12 [kaempferol]
IC50 [1, 27]: 61 µM | IC50 [1, 28]: > 100 µM | IC50 ([12]; no detergent, pH 7.0): 110 µM | IC50 [12, 30]: > 250 µM | radius [2]: 61 ± 20 nm | CAC (critical aggregation concentration) [2]: 81 ± 26 µM | EC50 [19]: 2.5 to 51 µM

COc1ccc2c(c1OC)C(=O)O[C@@H]2[C@H]1c2c(cc3c(c2OC)OCO3)CCN1C [noscapine]
inhibition of AmpC β-lactamase (in words) [5]: no inhibition | inhibition of MDH (in words) [1]: no inhibition | particle formation observed by DLS [2]: no particles were observed | EC50 [20]: 2.6 µM | EC50 [21]: 34.5 µM

O=C(CCc1ccc(O)cc1)c1c(O)cc(O)cc1O[C@@H]1O[C@H](CO)[C@@H](O)[C@H](O)[C@H]1O [phlorizin]
inhibition of AmpC β-lactamase (in words) [5]: no inhibition | inhibition of MDH (in words) [1]: no inhibition | particle formation observed by DLS [2]: no particles were observed | EC50 [22]: 100 to 200 µM

COc1cc(O)c2c(c1)C(=O)c1cc(C)cc(O)c1C2=O [physcion]
IC50 ([5]; no DTT): 7 µM | IC50 ([5]; with DTT, with 1 mM DTT): 11 µM | IC50 ([1]; read-out: IC50 vs MDH, no DTT): 11 µM | IC50 [1, 27]: 11 µM | IC50 [1, 29]: 8 µM | IC50 [1, 28]: > 20 µM | radius [2]: 320 ± 83 nm | CAC (critical aggregation concentration) [2]: 0.32 ± 0.025 µM | EC50 [23]: 20 µM | EC50 [14]: 26.8 to 45.3 µM

O=c1c(-c2ccc(O)cc2)coc2c([C@@H]3O[C@H](CO)[C@@H](O)[C@H](O)[C@H]3O)c(O)ccc12 [puerarin]
IC50 [1, 27]: 135 µM | IC50 [1, 28]: 156 µM | radius [2]: 78 ± 25 nm | concentration at which the molecule may aggregate [2]: ≥ 100 µM | CAC (critical aggregation concentration) [2]: 135 µM and 135 ± 40 µM | EC50 [24]: 38.4 µM

COc1cc(C2Oc3cc([C@H]4Oc5cc(O)cc(O)c5C(=O)[C@@H]4O)ccc3OC2CO)ccc1O (stereo partly shown) [silibinin]
IC50 [1, 27]: 12 µM | IC50 [1, 28]: > 100 µM | radius [2]: 53 ± 16 nm | CAC (critical aggregation concentration) [2]: 0.47 ± 0.15 µM | EC50 [25]: 250 µM | EC50 [26]: 60 µM
